Laboratory results: patent US12559461B2, “Antibiotic adjuvant compounds” (UNIVERSITY OF NOTRE DAME DU LAC, priority 2020, dated 2026)
Converted amounts (≈) assume the structure as drawn. “Also recorded” adds a separate entry of the source. Read-outs that look alike come from different tables or passages of the source.

Assays:
[1] = test system: AB5075; assay: Evolution of clarithromycin resistance by serial passage; format: cell-based, Acinetobacter baumannii
Method: A. baumannii 5075 was grown in CAMHB overnight then subcultured (5×10^5 CFU/mL) in 6 mL of fresh CAMHB. Adjuvant was added into this 6-mL subculture at either 10 or 30 μM concentrations. […] This was serially repeated for a period of nine days.

[2] = test system: AB5075; details: previously reported, cited from earlier work
[3] = test system: AB5075; details: previously reported, cited from earlier work; remark: listed apart in the source
[4] = test system: AB5075; details: compound alone, previously reported; cited from earlier work
[5] = test system: AB5075; assay: Broth microdilution MIC of compound alone (standalone toxicity); format: cell-based, Acinetobacter baumannii
Procedure, shortened: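 A. baumannii 5075 subcultured to 5×10^5 CFU/mL in cation-adjusted Mueller-Hinton broth; compound twofold serially diluted from 200 μM (DMSO stock) and incubated stationary at 37° C for 16 h. MIC taken as lowest concentration with no visible growth; duplicates, repeated at least twice.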

[6] = test system: AB5075; assay: Broth microdilution clarithromycin (CLR) potentiation and dose-response of adjuvant; format: cell-based, Acinetobacter baumannii
Procedure, shortened: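 A. baumannii AB5075 at 5×10^5 CFU/mL in CAMHB with fixed adjuvant (DMSO ≤0.3%) and two-fold serially diluted clarithromycin or colistin, stationary 16 h at 37° C. MIC = lowest concentration without visible growth; fold reduction versus antibiotic alone. Dose-response used adjuvant at 0–30 μM.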

[7] = test system: E. coli biofilm formation; details: Bioorg Med Chem Lett 2010; cited from earlier work
[8] = test system: AB5075; assay: Colistin MIC in presence of adjuvant (broth microdilution antibiotic potentiation); format: cell-based, Acinetobacter baumannii
Method: Bacterial Strains and Antimicrobial Agents. Acinetobacter baumannii clinical isolate 5075 was obtained from Dr. Colin Manoil at the University of Washington. Colonies were grown on lysogeny broth (LB) agar. Cation-adjusted Mueller-Hinton Broth (CAMHB) (catalog number 212322) were purchased from BD Diagnostics. LB broth was purchased from Fisher Scientific (catalog number BP9722-2). […] Colistin sulfate salt (catalog number C4461) was purchased from Sigma Aldrich. All assays were completed in duplicate and repeated at least two separate times. All compounds were dissolved as their HCl salts in molecular biology grade DMSO as 10 or 100 mM stock solutions and stored at −20° C. Colistin was dissolved in sterile water while clarithromycin was dissolved in molecular biology grade DMSO.
Broth microdilution method for antibiotic potentiation. Day cultures (6 h) of bacteria in CAMHB were subcultured to 5×10^5 CFU/mL in CAMHB. Aliquots (4 mL) were placed in culture tubes and dosed with compound from 10 mM stock samples to give the desired concentration of the compound to be tested against the particular bacterial strain; this insured non-toxic DMSO concentrations ≤0.3% in each well. 1 mL of the resulting solution was placed in a separate culture and dosed with antibiotic at the highest concentration to be tested. Bacteria treated with antibiotic alone served as the control. Row one of a 96-well plate was filled with 200 μL of the antibiotic/2-AI solution, and rows 2-12 were filled with 100 μL each of the remaining 4 mL of bacterial subculture containing adjuvant at the desired concentration, except for the control lane which contained only bacterial subculture. Row one was then mixed five times, and 100 μL was transferred to row two, which was then mixed five times before being transferred to row three. This process was repeated until all rows had been mixed, except for row twelve which would have only 2-AI to serve as a control to monitor potential toxicity. The 96-well plate was then covered in Glad Press n'Seal and incubated under stationary conditions at 37° C. for 16 h. MIC values were determined as the lowest concentration at which no bacterial growth was observed, and fold reductions were determined by comparison to antibiotic control lane.
Dose-response of Adjuvant Assay. The procedure for ‘broth microdilution method for antibiotic potentiation’ was followed using 4 mL aliquots of adjuvant at various concentrations: 0, 5, 7.5, 10, 15, 20, 25, and 30 μM.

[9] = passaging with CLR and 30 μM adjuvant 1, day 2 and day 9, adjuvant 1 at 30 μM

Molecule: Cl.Nc1nc(-c2ccc(NC(=O)c3cc(Cl)cc(Cl)c3)cc2)c[nH]1 [Compound 1, N-(4-(2-amino-1H-imidazol-4-yl)phenyl)-3,5-dichlorobenzamide hydrochloride]
- suppression of evolution of CLR resistance ([1]; AB5075 passaged with CLR and 30 μM adjuvant, nine-day course, hydrochloride): suppressed the increase in macrolide resistance; also recorded: suppresses the acquisition of CLR resistance
- CLR MIC ([1]; CLR-resistant AB5075 mutant from CLR-alone passaging, compound at 30 μM): 2 µg/mL
- CLR MIC [1, 9]: 0.25 µg/mL
- Fold Reduction of CLR MIC [1, 9]: 128 fold
- CLR MIC ([1]; serial passage with CLR + adjuvant 1 (30 μM), day 2, compound 1 tested at 30 μM): 0.25 µg/mL
- CLR MIC ([1]; serial passage with CLR + adjuvant 1 (30 μM), day 4, compound 1 tested at 30 μM): 0.25 µg/mL
- CLR MIC ([1]; serial passage with CLR + adjuvant 1 (30 μM), day 6, compound 1 tested at 30 μM): 0.25 µg/mL
- CLR MIC ([1]; serial passage with CLR + adjuvant 1 (30 μM), day 8, compound 1 tested at 30 μM): ≤0.5 µg/mL
- CLR MIC ([1]; serial passage with CLR + adjuvant 1 (30 μM), day 10, compound 1 tested at 30 μM): 0.25 µg/mL
- Fold Reduction of CLR MIC ([2]; compound at 10 μM): 16 fold
- Colistin MIC ([3]; compound at 30 μM): 4 µg/mL

Molecule: Nc1nc(-c2ccc(NC(=O)c3cc(Br)cc(Br)c3)cc2)c[nH]1 [Compound 2]
- MIC [4]: 100 µM (≈ 43.6 µg/mL)
- Fold Reduction of CLR MIC ([2]; compound at 10 μM): 16 fold
- Fold Reduction of CLR MIC ([2]; compound at 30 μM): 128 fold
- Colistin MIC ([3]; compound at 30 μM): 4 µg/mL

Molecule: Nc1nc(-c2ccc(NC(=O)c3cc(F)cc(F)c3)cc2)c[nH]1 [Compound 4k]
- MIC ([5]; Acinetobacter baumannii): > 200 µM
- CLR MIC ([6]; compound tested at 30 μM): 4 µg/mL
- Fold Reduction of CLR MIC ([6]; compound tested at 30 μM): eight-fold
- adjuvant activity (CLR potentiation), rank by amide linker position ([6]; dosed at 30 μM): highest adjuvant activity
- biofilm inhibition activity [7]: lead biofilm inhibitor

Molecule: Cl.Nc1nc(-c2ccc(NC(=O)c3ccc(Cl)c(Cl)c3)cc2)c[nH]1 [Compound 4r]
- MIC [5]: 100 µM
- CLR MIC ([6]; compound tested at 7.5 μM): 8 µg/mL
- CLR MIC ([6]; compound tested at 10 μM): 4 µg/mL
- Fold Reduction of CLR MIC ([6]; compound tested at 10 μM): eight
- CLR MIC ([6]; compound tested at 20 μM): 0.5 µg/mL
- Fold Reduction of CLR MIC ([6]; compound tested at 30 μM): 64 fold
- Colistin MIC ([8]; compound tested at 30 μM): 4 µg/mL

Molecule: Cl.Nc1nc(-c2ccc(NC(=O)c3c(Cl)cc(Cl)cc3Cl)cc2)c[nH]1 [Compound 4s]
- MIC [5]: 100 µM
- CLR MIC ([6]; compound tested at 10 μM): 32 µg/mL
- CLR MIC ([6]; compound tested at 20 μM): 16 µg/mL
- CLR MIC ([6]; compound tested at 25 μM): 8 µg/mL
- Colistin MIC ([8]; compound tested at 30 μM): 0.25 µg/mL

Molecule: Cl.Nc1nc(-c2ccc(NC(=O)c3cc(F)c(F)c(F)c3)cc2)c[nH]1 [Compound 4v]
- MIC [5]: 100 µM
- CLR MIC ([6]; compound tested at 10 μM): 32 µg/mL
- CLR MIC ([6]; compound tested at 20 μM): 8 µg/mL
- CLR MIC ([6]; compound tested at 30 μM): 1 µg/mL
- Colistin MIC ([8]; compound tested at 30 μM): 1 µg/mL

Molecule: Colistin sulfate salt [reference compound]
- Colistin MIC ([8]; colistin alone, no adjuvant): 0.5 µg/mL
- Colistin MIC ([3]; colistin alone): 1 µg/mL
